Eight molecules from patent US20220033407A1, “N-(pyridin-2-ylsulfonyl)cyclopropanecarboxamide Derivatives and their Use in the Treatment of Disease” (NOVARTIS AG, priority 2018, published 2022) can be followed below.

As a reminder, the EC50 is the concentration that produces a half-maximal response.

SMILES strings stand for the structures.

The target in one assay is T1, delF508-CFTR-HRP (Homo sapiens, UniProt P13569, DEL508-508).
T1 construct: expressed in transfected cells
The assay is described as follows: Measurement of delF508-CFTR-HRP surface expression in CFBE41o- cells (HRP luminescence).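 As to DelF508-CFTR-HRP Amax %: percent efficacy relative to a reference CFTR corrector compound.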 Format: cell-based. Conditions: for Emax: CFBE41o-, read-out: DelF508-CFTR-HRP Amax %; for EC50: mean of at least two replicates. The procedure, abridged:
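EC50 derived by logistic regression of triplicate surface-HRP luminescence, plate-normalized to the lowest-concentration median. Doxycycline (500 ng/mL, 48 h) induced delF508-CFTR-HRP in CFBE41o- cells; compounds then applied 24 h at 37° C, 10 μM top, 3-fold over 10 points.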

For another assay, the target named is T2, delF508-CFTR (Homo sapiens, UniProt P13569, DEL508-508).
T2 construct: functional activity of the CFTR channel (Chloride ion transport) in patient derived primary human bronchial epithelial cells; host or cells: patient-derived primary human bronchial epithelial cells (HBECs), delF508-CFTR
T2 sequence (P13569 with tags, fused parts or gaps DEL508-508): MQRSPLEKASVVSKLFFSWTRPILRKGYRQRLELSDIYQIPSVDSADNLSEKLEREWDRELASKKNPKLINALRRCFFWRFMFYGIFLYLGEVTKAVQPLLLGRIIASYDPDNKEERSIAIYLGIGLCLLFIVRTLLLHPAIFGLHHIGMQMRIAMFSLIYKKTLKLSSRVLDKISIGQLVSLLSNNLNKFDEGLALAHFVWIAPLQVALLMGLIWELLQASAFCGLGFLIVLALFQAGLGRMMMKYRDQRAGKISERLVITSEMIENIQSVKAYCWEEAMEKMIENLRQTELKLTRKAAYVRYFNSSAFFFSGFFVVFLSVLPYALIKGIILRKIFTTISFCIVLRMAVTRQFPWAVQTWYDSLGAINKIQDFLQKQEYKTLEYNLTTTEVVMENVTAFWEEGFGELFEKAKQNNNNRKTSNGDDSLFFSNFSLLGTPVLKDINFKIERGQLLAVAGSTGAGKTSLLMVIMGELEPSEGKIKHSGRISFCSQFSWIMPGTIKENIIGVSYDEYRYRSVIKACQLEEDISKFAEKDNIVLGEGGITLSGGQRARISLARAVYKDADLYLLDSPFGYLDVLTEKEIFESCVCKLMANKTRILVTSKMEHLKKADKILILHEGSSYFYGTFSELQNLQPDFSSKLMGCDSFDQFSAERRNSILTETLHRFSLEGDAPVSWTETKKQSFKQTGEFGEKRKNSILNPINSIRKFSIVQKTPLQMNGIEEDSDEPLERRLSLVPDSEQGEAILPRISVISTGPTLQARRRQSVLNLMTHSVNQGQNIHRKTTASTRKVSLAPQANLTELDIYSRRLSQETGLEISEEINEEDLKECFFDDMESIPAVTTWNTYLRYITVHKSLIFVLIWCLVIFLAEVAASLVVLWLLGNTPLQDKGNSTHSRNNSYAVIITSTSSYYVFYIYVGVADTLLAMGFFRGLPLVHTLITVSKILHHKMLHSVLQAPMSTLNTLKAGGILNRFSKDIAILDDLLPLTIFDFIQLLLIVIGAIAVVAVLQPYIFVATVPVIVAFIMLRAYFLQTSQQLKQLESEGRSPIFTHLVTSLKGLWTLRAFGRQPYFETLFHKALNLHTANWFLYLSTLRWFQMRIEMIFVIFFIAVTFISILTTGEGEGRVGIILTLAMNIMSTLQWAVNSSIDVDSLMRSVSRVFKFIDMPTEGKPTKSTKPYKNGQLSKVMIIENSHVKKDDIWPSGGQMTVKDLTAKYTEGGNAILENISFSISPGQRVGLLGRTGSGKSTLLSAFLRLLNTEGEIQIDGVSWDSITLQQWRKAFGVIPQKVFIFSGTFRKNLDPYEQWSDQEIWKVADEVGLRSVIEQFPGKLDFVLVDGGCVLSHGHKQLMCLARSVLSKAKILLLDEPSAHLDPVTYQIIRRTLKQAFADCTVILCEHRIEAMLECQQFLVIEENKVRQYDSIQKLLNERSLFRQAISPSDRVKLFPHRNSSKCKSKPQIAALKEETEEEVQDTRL
Description: delF508-CFTR functional activity in primary human bronchial epithelial cells (HBECs), Multi-Transepithelial Clamp Circuit (MTECC-24) assay, equivalent short circuit current. Format: cell-based. Particulars: primary CF HBECs; for MTECC24 CFHBEC-Amax %: relative to reference combination 2 μM 3-(6-(1-(2,2-difluorobenzo[d][1,3]dioxol-5-yl)cyclopropane-1-carboxamido)-3-methylpyridin-2-yl)benzoic acid (24 h) + 0.5 μM N-(2,4-di-tert-butyl-5-hydroxyphenyl)-4-oxo-1,4-dihydroquinoline-3-carboxamide; for EC50: test compound added 24 h before assay, potentiator (S)-3-amino-6-methoxy-N-(3,3,3-trifluoro-2-hydroxy-2-methylpropyl)-5-(trifluoromethyl)picolinamide present at assay, mean of at least two replicates, read-out: MTECC24 CFHBEC-EC50. In short, it runs like this: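 Compound acted as corrector on differentiated primary delF508-CFTR bronchial cultures, first 24 h basolaterally, then 45 min both sides before reading. Equivalent short circuit current was recorded during sequential forskolin and potentiator addition. EC50 came from 10-point, 1-in-3 dilution curves against the 0.1% DMSO baseline.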

T1 sequence (P13569 with tags, fused parts or gaps DEL508-508): as above

With `Cc1ccc(CC(C)C)c(OC2(C(=O)NS(=O)(=O)c3cccc(NC[C@@H](C)O)n3)CC2)c1` [Example 4-10, (R)-N-((6-((2-Hydroxypropyl)amino)pyridin-2-yl)sulfonyl)-1-(2-isobutyl-5-methylphenoxy)cyclopropane-1-carboxamide], on delF508-CFTR-HRP, the Emax came out at 374% and the EC50 was 3280 nM. Besides, on delF508-CFTR, the “MTECC24 CFHBEC-Amax %” value is on record as 71% and the half-maximal effective concentration (EC50) worked out at 12 nM.

Consider `Cc1ccc(C2CCC(F)(F)CC2)c(OC2(C(=O)NS(=O)(=O)c3cccc(N4CCCC(CO)C4)n3)CC2)c1` (single isomer, unassigned) [Example 3-3-2, 1-(2-(4,4-Difluorocyclohexyl)-5-methylphenoxy)-N-((6-(3-(hydroxymethyl)piperidin-1-yl)pyridin-2-yl)sulfonyl)cyclopropane-1-carboxamide], for which, at delF508-CFTR-HRP, the “DelF508-CFTR-HRP Amax %” value turned out to be 614% and a half-maximal response (EC50) required 2760 nM. Moreover, on delF508-CFTR, the “MTECC24 CFHBEC-Amax %” value came to 78% and the concentration for a half-maximal effect (EC50) turned out to be 10 nM.

As for `Cc1ccc(C2CCCCC2)c(OC2(C(=O)NS(=O)(=O)c3nc(N)ccc3F)CC2)c1` [Example 1-7, N-((6-Amino-3-fluoropyridin-2-yl)sulfony)-1-(2-cyclohexyl-5-methylphenoxy)cyclopropane-1-carboxamide], on delF508-CFTR-HRP, the Emax came out at 109% and a half-maximal effect (EC50) was put at 2830 nM. In addition, at delF508-CFTR, the “MTECC24 CFHBEC-Amax %” value is 54% and the half-maximal effective concentration (EC50) came to 40 nM.

In the case of `Cc1ccc(C2(C(F)(F)F)CC2)c(OC2(C(=O)NS(=O)(=O)c3cccc(N4CC(C)(O)C4)n3)CC2)c1` [Example 4-17, N-((6-(3-Hydroxy-3-methylazetidin-1-yl)pyridin-2-yl)sulfonyl)-1-(5-methyl-2-(1-(trifluoromethyl)cyclopropy)phenoxy)cyclopropane-1-carboxamide], at delF508-CFTR-HRP, the Emax worked out at 156% and the response was half-maximal at 4030 nM (EC50). Further, on delF508-CFTR, the “MTECC24 CFHBEC-Amax %” value came out at 55% and the EC50 amounted to 76 nM.

Consider `Cc1ccc(C2CCCCC2)c(OC2(C(=O)NS(=O)(=O)c3cccc(N4CCC(CO)(NC(=O)OC(C)(C)C)CC4)n3)CC2)c1` [Example 2-22, Tert-butyl (1-(6-(N-(1-(2-cyclohexyl-5-methylphenoxy)cyclopropanecarbonyl)sulfamoyl)pyridin-2-yl)-4-(hydroxymethyl)piperidin-4-yl)carbamates], for which, at delF508-CFTR-HRP, the Emax was 674% and the EC50 was found to be 2240 nM. For the same molecule, at delF508-CFTR, the “MTECC24 CFHBEC-Amax %” value was 90% and the EC50 came to 17 nM.

Turning to `Cc1ccc(OCCC2CCCCC2)c(OC2(C(=O)NS(=O)(=O)c3cccc(N4CC[C@H](O)C4)n3)CC2)c1` [Example 6-11, (S)-1-(2-(2-cyclohexylethoxy)-5-methylphenoxy)-N-((6-(3-hydroxypyrrolidin-1-yl)pyridin-2-yl)sulfonyl)cyclopropanecarboxamide], at delF508-CFTR-HRP, the Emax came out at 311% and it took 1180 nM to reach a half-maximal effect (EC50). Also, at delF508-CFTR, the “MTECC24 CFHBEC-Amax %” value turned out to be 113.6% and the concentration for a half-maximal effect (EC50) stood at 261 nM.

Regarding `CO[C@H]1CCN(c2cccc(S(=O)(=O)NC(=O)C3(Oc4cc(Cl)ccc4C4CC5(CCC5)C4)CC3)n2)C1` [Example 7-14, (S)-1-(5-Chloro-2-(spiro[3.3]heptan-2-yl)phenoxy)-N-((6-(3-methoxypyrrolidin-1-yl)pyridin-2-yl)sulfonyl)cyclopropane-1-carboxamide], on delF508-CFTR-HRP, the Emax was determined as 496% and the midpoint of the response, the EC50, lay at 1100 nM. Moreover, at delF508-CFTR, the “MTECC24 CFHBEC-Amax %” value is 128.1% and the concentration for a half-maximal effect (EC50) was 317 nM.

Consider `Cc1ccc(C2CCCCC2)c(OC2(C(=O)NS(=O)(=O)c3cccc(N4CCC(C)(C(=O)O)CC4)n3)CC2)c1` [Example 2-5, 1-(6-(N-(1-(2-cyclohexyl-5-methylphenoxy)cyclopropanecarbonyl)sulfamoyl)pyridin-2-yl)-4-methylpiperidine-4-carboxylic acid], for which, at delF508-CFTR-HRP, the Emax worked out at 213% and the concentration giving a half-maximal response (EC50) amounted to 3020 nM. For the same molecule, on delF508-CFTR, the “MTECC24 CFHBEC-Amax %” value is 66% and the EC50 turned out to be 7 nM.
